Like-named read-outs stand apart in the source and are kept apart here.
Tests used:
[1] = tested on: S. mansoni schistosomula; design: method as in PMID 19597541, PMID 20668553; conditions: cited from earlier work
[2] = tested on: Cyp3A4; design: method as in ChEMBL; conditions: ref ChEMBL; cited from earlier work
[3] = tested on: Cyp2C19; design: method as in ChEMBL; conditions: ref ChEMBL; cited from earlier work
[4] = tested on: Pyoellii; design: method as in ChEMBL; conditions: reported by Novartis in Science paper; ref ChEMBL; cited from earlier work
[5] = tested on: P. falciparum; design: method as in Pubchem; conditions: ref Pubchem; cited from earlier work
[6] = Cytotoxicity assay (Alamar blue); assay type: cell-based; conditions: human, MRC5 CC50
Protocol: Activity against mammalian cells was determined using MRC-5 cells. Cells were maintained in Minimum Essential Medium supplemented with glutamax (Gibco, UK), 1% non-essential amino acids (Gibco, UK) and 10% Foetal bovine serum (Gibco, UK). They were harvested by treatment with 0.25% Trypsin-EDTA for 3 minutes and diluted to 1x10^5/ml. 100μl aliquots of the cell suspension were then plated in 96 well plates (Nunc, Thermo Fisher Scientific, UK). The plates were left to incubate for 24 hours at 37°C and 5% CO2 in a humidified incubator. Cytotoxicity DR assays were set up 24 hours post incubation at 5% CO2 and 37°C, with compounds prepared at 3-fold dilutions starting from 50μM. Dilutions were added to the cells such that the final % DMSO/well was 0.5%. Each drug concentration was tested in duplicate. On each 96 well plate there were negative control wells of media only, MRC-5 cells only and MRC-5 cells with 0.5% DMSO. For positive control wells doxorubicin hydrochloride (Sigma-Aldrich, UK) was added to the cells at 100μM concentration. The cultures were then maintained for a further 72 hours at 37°C and 5% CO2. Drug cytotoxicity was determined using the redox indicator Alamar blue (AbD Serotec, UK). 10μl of Alamar Blue was added to each well and the plates incubated for 4 hours at 37°C and 5% CO2 atmosphere. The fluorescence intensity was measured using a Spectramax Gemini plate reader (Molecular Devices, UK) using an excitation wavelength of 530 nm and an emission wavelength of 580 nm.
(§1) IC50 values were calculated from the drug concentration–response curves using Microsoft XLfit version 5.1.0.0 (2006–2008 ID Business Solutions Ltd). Results were expressed as the geometric mean IC50.

[7] = tested on: S. mansoni adult worms; assay: Adult worm assay, single point and dose response; assay type: cell-based; conditions: Schistosoma mansoni
Protocol: (§2) For production of S. mansoni juvenile or adult worms, mice were infected subcutaneously under mild isoflurane (Merial Animal Health Ltd (UK)) anaesthesia with, respectively 1400 (for juveniles) or 450 cercariae (for adults). Worms were recovered from infected mice using sterile techniques by portal perfusion 3 weeks (for juveniles) or 6 weeks (for adults) post-infection using warm perfusion medium (Dulbecco’s Modified Eagle’s Medium [DMEM], 2mM L-glutamine, 100 Units/ml penicillin, 100μg/ml streptomycin, 20mM Hepes, 10 Units/ml heparin [Sigma, UK] [8]. Adult worms were washed free of red blood cells using the perfusion medium, and finally placed in culture in complete medium (cDMEM: DMEM, 2mM L-glutamine, 100 Units/ml penicillin, 100μg/ml streptomycin, 10% foetal calf serum (FCS) at 37°C, in an atmosphere of 5% CO2. Juvenile worms were sedimented successively following washing with cold perfusion medium and then suspended in cold cDMEM until dispensed to avoid attachment to the plastic tubes.
(§3) For the juvenile assay the concentration of worms was adjusted to 40/ml cDMEM and, prior to dispensing, the suspension was cooled on ice to prevent adherence of the worms to the plastic bottles. After swirling to resuspend worms,150μL of suspension was added to the wells of 96 well microtitre plates (Nunc, Thermo Fisher Scientific, UK). Wells were quickly checked and those with <5 worms were marked. The remainder were made up to 200μL and the deficient wells topped up with a worm suspension to ensure that all wells had ≥5 worms. The adult worm assay was as described in [8] except that 1ml cultures containing 3 worm pairs were generally used. Both the juvenile and adult worm assays were assessed for activity on days +1 and +5. Drug effects were determined by assessing the viability of individual worms and calculating the mean percentage inhibition, a hit being defined as ≥70% reduction in viability.
(§4) The primary HTS and subsequent juvenile and adult screens were run as single point (SP) assays at 10–12.5μM depending on the concentrations in the compound collections. Compounds were tested in duplicate. Where necessary, repeat testing was carried out on re-supplied liquid samples. All compounds of interest were re-tested as solid compounds or by repeat synthesis and activity confirmed.
(§5) Compounds with activity against all three parasite stages were tested in parallel dose response (DR) assays against juvenile worms and MRC-5 cells. Promising compounds were then tested in the adult DR. For the parasite DR (larvae, juveniles and adults) the concentrations tested were two fold dilutions starting from 2x the primary screening concentrations (i.e. 20–25μM).
as §1

[8] = tested on: S. mansoni juvenile worms; assay: Juvenile worm assay (3 week old worms), single point and dose response; assay type: cell-based; conditions: Schistosoma mansoni
Protocol: as §2, §3, §4, §5, §1

[9] = tested on: S. mansoni schistosomula; assay: Larval HTS and larval dose response (image-based phenotype and motility of schistosomula); assay type: cell-based, Schistosoma mansoni; design: Motility score: scale not given here; conditions: for Motility score / Phenotype score: 10μM control wells
Protocol: Experiments were performed using the Puerto Rican strain of S. mansoni maintained in Biomphalaria glabrata and CD1 mice. The strain of snail was one bred by Prof Mike Doenhoff (Nottingham University) for high susceptibility to S. mansoni and ease of breeding in large numbers to high density. Careful attention was paid to controlling infections with rotifers which otherwise would contaminate the HTS schistosomula preparations as well as affecting snail viability. This included recovery of egg masses on short length pieces of polypropylene tubing placed into the breeding tanks and treatment of these with 3 x 10 seconds immersion in 70% ethanol with 3 minutes soaking in clean water in between alcohol treatments. Schistosomula were mechanically prepared as previously described with the modification of using a 45% and 70% Percoll gradient, and the cercarial heads recovered from the 70% layer. All centrifugation steps were done at 350x g. The schistosomula generated were then incubated overnight in M169 supplemented with 100U/ml Penicillin, 300μg/ml Streptomycin, 0.25μg/ml Fungizone (Amphotericin B) (Gibco, UK) and 5% Foetal Calf serum.
The larval HTS was run as described previously. Compound libraries were provided in 384 well plates as liquid either (i) small volumes in polypropylene 384 V-bottom storage plates (Greinerbio-one) that were diluted and 500nL dispensed into black 384 imaging plates (ViewPlate 6007460; PerkinElmer) using the Biomek FxP (Beckman Coulter) or (ii) in an assay-ready format from which a 40nL volume was transferred into wells of imaging plates. […] Therefore, to prevent fungal contamination 0.25μg/ml (0.27μM) of amphotericin B (AMP-B) was added to cultures both during the overnight culture prior to plating and during the 3 day assay.
The primary HTS and subsequent juvenile and adult screens were run as single point (SP) assays at 10–12.5μM depending on the concentrations in the compound collections. Compounds were tested in duplicate. Where necessary, repeat testing was carried out on re-supplied liquid samples.
as §5, §1

[10] = tested on: S. mansoni schistosomula; assay: as above; assay type: cell-based, Schistosoma mansoni; design: Motility score: scale not given here; conditions: 10μM control wells, -AMP-B
[11] = tested on: TrxR1; design: method as in ChEMBL; conditions: ref ChEMBL; cited from earlier work
[12] = tested on: TRPC4; design: method as in ChEMBL; conditions: ref ChEMBL; cited from earlier work
[13] = Enamine library plates, negative control adjusted to zero
[14] = GSK library plates, negative control adjusted to zero
[15] = Pfizer library plates, negative control adjusted to zero

Structure (SMILES): C[C@@H]1[C@H](O)[C@@H](C)/C=C/C=C/C=C/C=C/C=C/C=C/C=C/[C@H](O[C@@H]2O[C@H](C)[C@@H](O)[C@H](N)[C@@H]2O)C[C@@H]2O[C@](O)(C[C@@H](O)C[C@@H](O)[C@H](O)CC[C@@H](O)C[C@@H](O)CC(=O)O[C@H]1C)C[C@H](O)[C@H]2C(=O)O [AMP-B, amphotericin B]
- concentrations reported to have lethal activity [1]: 1 to 10 µM

Structure (SMILES): Cc1[nH]c2ccccc2c1C(c1ccccn1)N1CCC(C)CC1 (stereo not drawn) [CHEMBL1517121]
- AC50 [2]: 2000 nM
- AC50 [3]: 13000 nM

Structure (SMILES): c1ccc(-c2cc(N3CCN(c4ccccn4)CC3)nc(-c3ccccn3)n2)nc1 [CHEMBL579352]
- activity vs Pyoellii [4]: 17.5 nM
- activity vs two Pfalciparum strains [5]: < 100 nM

Structure (SMILES): O=C(C1CCCCC1)N1CC(=O)N2CCc3ccccc3C2C1 (stereo not drawn) [Praziquantel]
- CC50 at 72 h [6]: > 50000 nM
- inhibition at 12.5 µM ([7]; 24 h, day 1, read-out: Adult % motility reduction DAY 1): 76%
- inhibition at 12.5 µM ([7]; 120 h, day 5, read-out: Adult % motility reduction DAY 5): 88%
- EC50 ([7]; first value of cell, * n = 1): 300 nM
- inhibition at 12.5 µM ([8]; 24 h, day 1, read-out: Juvenile (% motility reduction) DAY 1): 57%
- inhibition at 12.5 µM ([8]; 120 h, day 5, read-out: Juvenile (% motility reduction) DAY 5): 58.4%
- EC50 ([8]; first value of cell, geometric mean, * n = 1): 4700 nM
- Motility score ([9]; +AMP-B (0.25μg/ml)): -0.57 ± 0.10
- Phenotype score ([9]; +AMP-B (0.25μg/ml)): -0.38 ± 0.08
- Motility score [9, 13]: -0.52 ±0.08
- Phenotype score [9, 13]: -0.35 ±0.09
- Motility score [9, 14]: -0.67 ±0.12
- Phenotype score [9, 14]: -0.50 ±0.10
- Phenotype score ([9]; MMV library plates, mean ±SD, negative control adjusted to zero): -0.37 ±0.09
- Motility score ([9]; MMV library plates, negative control adjusted to zero): -0.57 ±0.10
- Motility score [9, 15]: -0.63 ±0.07
- Phenotype score [9, 15]: -0.37 ±0.04
- EC50 ([9]; Schistosoma mansoni, 72 h, 3 day assay, geometric mean): 1900 nM
- Motility score [10]: -0.53 ± 0.10
- Phenotype score [10]: -0.21 ± 0.12

Structure (SMILES): CCOC(=O)C1CCN(C(c2ccccn2)c2c(C)[nH]c3ccccc23)CC1 (stereo not drawn) [CHEMBL1390809]
- activity vs TrxR1 [11]: 1.5 µM
- activity as an activator of TRPC4 [12]: 5 to 10 µM
